From article PMC6199744, “Development of Chemical Proteomics for the Folateome and Analysis of the Kinetoplastid Folateome” (ACS Infectious Diseases, 2018)
Read-outs that look alike come from different tables or passages of the source.

How the values were obtained:
Type in all cases: binding
[1] = target: T1, HeLa cell extract proteins (Homo sapiens, UniProt P14618)
T1 construct: endogenous in cells; host or cells: HeLa cell extract

[2] = target: T2, HeLa cell extract proteins (Homo sapiens, UniProt P61019)
T2 construct: endogenous in cells; host or cells: HeLa cell extract

[3] = target: T3, HeLa cell extract proteins (Homo sapiens, UniProt Q9NYU2)
T3 construct: endogenous in cells; host or cells: HeLa cell extract

[4] = target: T4, HeLa cell extract proteins (Homo sapiens, UniProt Q9NPA3)
T4 construct: endogenous in cells; host or cells: HeLa cell extract

[5] = target: T5, HeLa cell extract proteins (Homo sapiens, UniProt A5YKK6)
T5 construct: endogenous in cells; host or cells: HeLa cell extract

[6] = target: T6, HeLa cell extract proteins (Homo sapiens, UniProt O95429)
T6 construct: endogenous in cells; host or cells: HeLa cell extract
T6 sequence (O95429 1-457): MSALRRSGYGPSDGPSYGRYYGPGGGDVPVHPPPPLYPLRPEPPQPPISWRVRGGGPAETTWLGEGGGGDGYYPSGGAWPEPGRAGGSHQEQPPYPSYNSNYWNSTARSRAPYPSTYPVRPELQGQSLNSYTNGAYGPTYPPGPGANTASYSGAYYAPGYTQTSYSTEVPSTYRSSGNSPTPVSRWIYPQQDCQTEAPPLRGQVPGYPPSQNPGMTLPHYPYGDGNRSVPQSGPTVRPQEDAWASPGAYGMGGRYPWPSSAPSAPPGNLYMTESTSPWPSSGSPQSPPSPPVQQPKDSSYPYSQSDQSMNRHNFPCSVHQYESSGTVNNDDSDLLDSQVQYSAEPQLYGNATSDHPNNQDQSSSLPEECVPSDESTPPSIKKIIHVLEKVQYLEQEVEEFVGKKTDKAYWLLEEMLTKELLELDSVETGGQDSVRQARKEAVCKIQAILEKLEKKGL

[7] = target: T7, HeLa cell extract proteins (Homo sapiens, UniProt Q7Z4G4)
T7 construct: endogenous in cells; host or cells: HeLa cell extract
T7 sequence (Q7Z4G4 1-463): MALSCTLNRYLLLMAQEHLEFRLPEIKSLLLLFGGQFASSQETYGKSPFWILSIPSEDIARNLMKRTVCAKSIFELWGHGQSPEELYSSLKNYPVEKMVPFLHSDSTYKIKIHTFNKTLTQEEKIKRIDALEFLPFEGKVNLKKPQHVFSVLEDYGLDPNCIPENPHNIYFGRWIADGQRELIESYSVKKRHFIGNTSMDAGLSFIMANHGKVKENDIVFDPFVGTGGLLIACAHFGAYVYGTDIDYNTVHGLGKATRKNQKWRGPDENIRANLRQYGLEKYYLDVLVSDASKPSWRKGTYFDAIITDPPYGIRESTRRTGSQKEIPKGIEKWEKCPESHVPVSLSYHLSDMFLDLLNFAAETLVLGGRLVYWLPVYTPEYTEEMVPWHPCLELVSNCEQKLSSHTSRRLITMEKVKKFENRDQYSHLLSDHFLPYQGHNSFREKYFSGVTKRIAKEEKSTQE

[8] = target: T8, HeLa cell extract proteins (Homo sapiens, UniProt P51659)
T8 construct: endogenous in cells; host or cells: HeLa cell extract
T8 sequence (P51659 1-736): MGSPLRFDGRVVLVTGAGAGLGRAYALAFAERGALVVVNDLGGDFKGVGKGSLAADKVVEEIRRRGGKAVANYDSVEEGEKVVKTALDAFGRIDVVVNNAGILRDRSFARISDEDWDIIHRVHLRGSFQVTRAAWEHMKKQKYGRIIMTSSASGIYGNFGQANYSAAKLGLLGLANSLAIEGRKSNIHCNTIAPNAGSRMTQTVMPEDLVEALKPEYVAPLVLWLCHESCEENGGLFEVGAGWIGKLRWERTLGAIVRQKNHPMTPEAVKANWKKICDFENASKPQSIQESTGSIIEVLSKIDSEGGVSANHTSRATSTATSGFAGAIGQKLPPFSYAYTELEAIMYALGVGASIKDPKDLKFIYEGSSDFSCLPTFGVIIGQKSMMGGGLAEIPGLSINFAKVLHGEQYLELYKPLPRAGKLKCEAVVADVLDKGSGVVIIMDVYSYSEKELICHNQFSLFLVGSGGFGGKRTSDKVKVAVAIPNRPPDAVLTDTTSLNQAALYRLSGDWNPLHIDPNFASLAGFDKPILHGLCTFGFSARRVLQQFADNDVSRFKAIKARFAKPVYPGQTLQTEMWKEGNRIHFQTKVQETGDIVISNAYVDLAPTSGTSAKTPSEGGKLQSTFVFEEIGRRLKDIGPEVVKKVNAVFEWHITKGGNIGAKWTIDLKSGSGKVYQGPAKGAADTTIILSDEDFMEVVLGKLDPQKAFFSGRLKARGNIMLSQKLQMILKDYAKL

[9] = target: T9, HeLa cell extract proteins (Homo sapiens, UniProt P68104)
T9 construct: endogenous in cells; host or cells: HeLa cell extract
T9 sequence (P68104 1-462): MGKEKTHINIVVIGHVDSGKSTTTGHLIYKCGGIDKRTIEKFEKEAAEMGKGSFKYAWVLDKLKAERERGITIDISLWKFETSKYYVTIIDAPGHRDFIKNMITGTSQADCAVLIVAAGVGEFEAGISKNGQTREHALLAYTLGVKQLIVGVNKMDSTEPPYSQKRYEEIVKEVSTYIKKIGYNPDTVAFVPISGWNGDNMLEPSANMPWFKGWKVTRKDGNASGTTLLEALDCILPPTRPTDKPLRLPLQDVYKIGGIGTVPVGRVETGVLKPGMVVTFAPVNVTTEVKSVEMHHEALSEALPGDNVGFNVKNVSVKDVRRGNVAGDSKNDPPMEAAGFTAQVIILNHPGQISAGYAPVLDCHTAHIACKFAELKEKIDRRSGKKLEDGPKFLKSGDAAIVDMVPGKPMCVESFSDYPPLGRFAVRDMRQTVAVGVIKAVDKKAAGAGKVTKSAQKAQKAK

[10] = HeLa, protein PKM2 (CDNA FLJ56065, HIGHLY SIMILAR TO PYRUVATE KINASE ISOZYME M1.)
[11] = HeLa, protein BAG4 (BAG FAMILY MOLECULAR CHAPERONE REGULATOR 4)
[12] = HeLa, protein HSD17B4 (CDNA FLJ55431, HIGHLY SIMILAR TO PEROXISOMAL MULTIFUNCTIONAL ENZYME TYPE 2)

T4 sequence (Q9NPA3 whole entry): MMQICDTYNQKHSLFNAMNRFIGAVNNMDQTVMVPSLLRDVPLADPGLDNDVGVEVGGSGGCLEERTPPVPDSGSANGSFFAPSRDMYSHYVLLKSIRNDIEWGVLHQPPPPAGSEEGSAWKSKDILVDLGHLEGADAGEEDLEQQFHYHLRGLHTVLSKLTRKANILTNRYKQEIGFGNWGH
T2 sequence (P61019 whole entry): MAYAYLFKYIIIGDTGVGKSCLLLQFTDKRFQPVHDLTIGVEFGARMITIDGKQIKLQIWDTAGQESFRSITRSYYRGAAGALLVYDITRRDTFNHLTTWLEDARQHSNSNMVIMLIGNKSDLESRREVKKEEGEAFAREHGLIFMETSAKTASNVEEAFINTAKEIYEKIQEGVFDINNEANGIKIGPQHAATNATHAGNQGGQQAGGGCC
T3 sequence (Q9NYU2 43-1555): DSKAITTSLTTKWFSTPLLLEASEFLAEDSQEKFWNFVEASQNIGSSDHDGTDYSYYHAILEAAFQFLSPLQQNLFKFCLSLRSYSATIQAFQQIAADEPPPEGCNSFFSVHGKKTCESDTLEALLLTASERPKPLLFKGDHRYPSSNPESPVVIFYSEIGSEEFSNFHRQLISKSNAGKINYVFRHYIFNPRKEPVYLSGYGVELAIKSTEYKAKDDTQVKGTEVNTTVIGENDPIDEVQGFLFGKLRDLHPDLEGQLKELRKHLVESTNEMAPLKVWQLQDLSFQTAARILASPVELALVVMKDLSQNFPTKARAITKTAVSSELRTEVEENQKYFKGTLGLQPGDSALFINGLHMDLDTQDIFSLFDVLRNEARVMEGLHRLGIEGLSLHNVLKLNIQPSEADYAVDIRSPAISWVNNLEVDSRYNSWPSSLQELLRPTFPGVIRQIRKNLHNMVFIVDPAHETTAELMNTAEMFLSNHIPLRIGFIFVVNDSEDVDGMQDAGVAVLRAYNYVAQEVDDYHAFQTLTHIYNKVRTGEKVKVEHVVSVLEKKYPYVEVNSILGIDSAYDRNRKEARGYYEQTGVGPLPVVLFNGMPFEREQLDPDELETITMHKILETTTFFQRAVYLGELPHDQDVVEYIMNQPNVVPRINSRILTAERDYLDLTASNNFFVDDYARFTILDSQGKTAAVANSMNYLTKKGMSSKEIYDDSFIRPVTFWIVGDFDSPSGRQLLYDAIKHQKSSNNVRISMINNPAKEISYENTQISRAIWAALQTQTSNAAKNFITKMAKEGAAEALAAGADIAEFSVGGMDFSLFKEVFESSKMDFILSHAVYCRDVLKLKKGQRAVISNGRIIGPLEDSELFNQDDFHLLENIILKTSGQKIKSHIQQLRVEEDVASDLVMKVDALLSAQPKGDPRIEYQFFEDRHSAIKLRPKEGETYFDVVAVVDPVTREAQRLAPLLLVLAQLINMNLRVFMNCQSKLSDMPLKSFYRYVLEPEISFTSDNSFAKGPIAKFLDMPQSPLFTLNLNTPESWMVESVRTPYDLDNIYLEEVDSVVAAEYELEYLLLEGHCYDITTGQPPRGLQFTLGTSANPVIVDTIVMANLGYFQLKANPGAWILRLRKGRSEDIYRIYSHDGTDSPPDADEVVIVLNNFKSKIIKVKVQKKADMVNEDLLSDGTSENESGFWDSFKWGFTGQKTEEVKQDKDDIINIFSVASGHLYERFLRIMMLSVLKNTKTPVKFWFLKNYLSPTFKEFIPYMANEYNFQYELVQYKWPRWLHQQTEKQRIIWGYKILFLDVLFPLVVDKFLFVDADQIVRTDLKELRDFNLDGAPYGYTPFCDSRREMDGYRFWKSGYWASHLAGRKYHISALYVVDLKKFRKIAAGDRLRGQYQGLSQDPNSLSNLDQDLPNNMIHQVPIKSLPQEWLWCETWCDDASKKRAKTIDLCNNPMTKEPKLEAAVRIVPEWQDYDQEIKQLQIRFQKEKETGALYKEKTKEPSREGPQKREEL
T1 sequence (P14618 whole entry): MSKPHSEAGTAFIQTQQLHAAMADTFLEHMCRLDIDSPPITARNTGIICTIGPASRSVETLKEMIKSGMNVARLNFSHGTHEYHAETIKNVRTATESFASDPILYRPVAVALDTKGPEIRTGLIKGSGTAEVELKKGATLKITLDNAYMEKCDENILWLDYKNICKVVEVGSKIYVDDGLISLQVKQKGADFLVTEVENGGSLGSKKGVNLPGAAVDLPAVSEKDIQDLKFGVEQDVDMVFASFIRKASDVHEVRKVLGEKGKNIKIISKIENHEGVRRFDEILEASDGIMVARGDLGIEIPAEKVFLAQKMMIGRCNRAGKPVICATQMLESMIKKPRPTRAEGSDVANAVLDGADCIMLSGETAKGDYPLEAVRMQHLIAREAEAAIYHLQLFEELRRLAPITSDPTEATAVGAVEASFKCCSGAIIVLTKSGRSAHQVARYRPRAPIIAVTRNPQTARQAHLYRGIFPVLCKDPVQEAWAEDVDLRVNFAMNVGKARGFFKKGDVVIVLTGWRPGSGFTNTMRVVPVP
T5 sequence (A5YKK6 whole entry): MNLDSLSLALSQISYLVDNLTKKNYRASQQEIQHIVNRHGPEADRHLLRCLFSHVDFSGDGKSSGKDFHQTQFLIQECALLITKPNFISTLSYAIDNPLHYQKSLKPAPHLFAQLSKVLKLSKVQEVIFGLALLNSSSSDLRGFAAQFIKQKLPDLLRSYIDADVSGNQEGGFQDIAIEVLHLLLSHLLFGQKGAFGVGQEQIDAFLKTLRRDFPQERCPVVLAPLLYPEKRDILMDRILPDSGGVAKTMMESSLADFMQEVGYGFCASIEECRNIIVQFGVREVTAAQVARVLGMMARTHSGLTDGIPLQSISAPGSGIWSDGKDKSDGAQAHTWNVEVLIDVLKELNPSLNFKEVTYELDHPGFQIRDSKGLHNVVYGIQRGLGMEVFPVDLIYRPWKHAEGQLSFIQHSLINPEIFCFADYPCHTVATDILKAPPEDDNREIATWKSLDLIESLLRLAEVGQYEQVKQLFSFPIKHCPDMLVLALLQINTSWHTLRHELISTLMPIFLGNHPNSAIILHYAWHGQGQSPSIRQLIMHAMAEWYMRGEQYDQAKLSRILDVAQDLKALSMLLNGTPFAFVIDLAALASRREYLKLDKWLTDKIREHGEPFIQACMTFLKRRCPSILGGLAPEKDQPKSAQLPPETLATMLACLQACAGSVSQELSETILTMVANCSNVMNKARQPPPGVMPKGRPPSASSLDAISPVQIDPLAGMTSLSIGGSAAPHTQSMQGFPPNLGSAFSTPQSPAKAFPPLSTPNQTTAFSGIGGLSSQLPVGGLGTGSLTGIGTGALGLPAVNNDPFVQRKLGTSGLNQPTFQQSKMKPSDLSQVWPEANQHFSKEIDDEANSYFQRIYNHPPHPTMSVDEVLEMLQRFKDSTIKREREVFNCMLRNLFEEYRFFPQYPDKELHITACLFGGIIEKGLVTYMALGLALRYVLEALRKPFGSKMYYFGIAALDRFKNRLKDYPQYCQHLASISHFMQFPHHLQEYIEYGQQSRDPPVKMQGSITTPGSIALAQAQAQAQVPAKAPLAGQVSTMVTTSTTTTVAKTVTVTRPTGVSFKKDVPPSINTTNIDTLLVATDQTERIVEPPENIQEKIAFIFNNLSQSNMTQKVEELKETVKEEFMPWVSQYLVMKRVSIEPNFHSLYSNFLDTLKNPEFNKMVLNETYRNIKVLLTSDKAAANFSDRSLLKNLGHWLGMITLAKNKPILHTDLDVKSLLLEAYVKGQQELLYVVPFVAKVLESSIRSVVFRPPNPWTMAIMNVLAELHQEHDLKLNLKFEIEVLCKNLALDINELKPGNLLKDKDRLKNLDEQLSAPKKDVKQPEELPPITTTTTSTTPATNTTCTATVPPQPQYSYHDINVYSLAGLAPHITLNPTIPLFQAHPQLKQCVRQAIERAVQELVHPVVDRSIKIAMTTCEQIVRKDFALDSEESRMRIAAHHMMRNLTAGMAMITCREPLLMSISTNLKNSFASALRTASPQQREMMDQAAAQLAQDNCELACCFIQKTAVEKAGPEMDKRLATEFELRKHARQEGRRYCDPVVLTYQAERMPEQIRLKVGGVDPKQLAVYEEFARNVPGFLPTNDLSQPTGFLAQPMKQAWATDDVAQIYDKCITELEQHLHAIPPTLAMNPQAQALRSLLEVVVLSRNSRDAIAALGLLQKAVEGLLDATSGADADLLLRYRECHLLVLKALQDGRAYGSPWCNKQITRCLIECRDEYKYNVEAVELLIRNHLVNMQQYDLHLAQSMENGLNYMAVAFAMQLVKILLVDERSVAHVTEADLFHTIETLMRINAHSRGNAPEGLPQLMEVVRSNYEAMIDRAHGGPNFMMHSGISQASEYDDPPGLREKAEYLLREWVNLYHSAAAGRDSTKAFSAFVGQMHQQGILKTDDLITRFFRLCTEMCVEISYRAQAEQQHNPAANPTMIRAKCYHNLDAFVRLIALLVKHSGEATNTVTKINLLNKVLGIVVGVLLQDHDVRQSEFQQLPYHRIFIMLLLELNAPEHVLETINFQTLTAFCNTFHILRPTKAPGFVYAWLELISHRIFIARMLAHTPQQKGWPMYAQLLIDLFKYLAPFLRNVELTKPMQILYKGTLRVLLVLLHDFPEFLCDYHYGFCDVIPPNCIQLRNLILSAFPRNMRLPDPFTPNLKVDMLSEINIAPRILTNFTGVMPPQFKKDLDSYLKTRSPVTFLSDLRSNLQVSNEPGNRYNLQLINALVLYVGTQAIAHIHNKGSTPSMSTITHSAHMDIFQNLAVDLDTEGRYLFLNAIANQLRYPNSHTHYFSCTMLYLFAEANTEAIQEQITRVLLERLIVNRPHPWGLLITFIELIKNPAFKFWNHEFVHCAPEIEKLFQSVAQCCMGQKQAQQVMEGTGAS

Compound | fold changes relative to vehicle control [1, 10] [fold] | fold changes relative to vehicle control ([2]; captured protein RAB2A, HeLa) | fold changes relative to vehicle control ([3]; protein UGCGL1, HeLa) | fold changes relative to vehicle control ([4]; captured protein MIG12, HeLa) | fold changes relative to vehicle control ([5]; protein CNOT1, HeLa) | fold changes relative to vehicle control ([6]; captured protein BAG4, HeLa) | fold changes relative to vehicle control ([7]; HeLa, protein TRMT11) | fold changes relative to vehicle control ([8]; protein HSD17B4, HeLa) | fold changes relative to vehicle control ([9]; protein EEF1A1, HeLa) | fold changes relative to vehicle control ([1]; HeLa, protein PKM2) | fold changes relative to vehicle control ([2]; HeLa, protein RAB2A) | fold changes relative to vehicle control ([3]; HeLa, protein UGCGL1) | fold changes relative to vehicle control ([4]; HeLa, protein MIG12) | fold changes relative to vehicle control ([5]; HeLa, captured protein CNOT1) | fold changes relative to vehicle control [6, 11] | fold changes relative to vehicle control ([7]; HeLa, captured protein TRMT11) | fold changes relative to vehicle control [8, 12] | fold changes relative to vehicle control ([9]; HeLa, captured protein EEF1A1) | also measured
Nc1nc2cccc(-c3ccccc3)c2n1Cc1ccc(Cl)c(Cl)c1 [compound 3] | 0.99 | 0.83 | 1.05 | 0.95 | 1.37 | 1.25 | 0.96 | 1.14 | 0.97 | – | – | – | – | – | – | – | – | – | –
NCCOCCOCC(=O)Nc1nc2ncc(CNc3ccc(C(=O)NC(CCC(=O)O)C(=O)O)cc3)nc2c(=O)[nH]1 (stereo not drawn) [compound 6] | – | – | – | – | – | – | – | – | – | 1.29 | 1.09 | 1.01 | 1.1 | 1.17 | 1.03 | 0.86 | 1.02 | 0.99 | –
Nc1nc2[nH]cc(CCc3ccc(C(=O)N[C@@H](CCC(=O)O)C(=O)O)cc3)c2c(=O)[nH]1 [PTX, pemetrexed] | – | – | – | – | – | – | – | – | – | – | – | – | – | – | – | – | – | – | fold changes relative to vehicle control [1]: 1.09; fold changes relative to vehicle control [2]: 0.93; fold changes relative to vehicle control [3]: 1.02; fold changes relative to vehicle control [4]: 0.96; fold changes relative to vehicle control [5]: 1; fold changes relative to vehicle control [6]: 1.05; fold changes relative to vehicle control [7]: 0.85; fold changes relative to vehicle control [8]: 1.15; fold changes relative to vehicle control [9]: 0.93
Nc1nc2c(c(=O)[nH]1)N(C=O)C(CNc1ccc(C(=O)N[C@@H](CCC(=O)O)C(=O)O)cc1)CN2 (stereo partly drawn) [LEU, leucovorin] | – | – | – | – | – | – | – | – | – | 1.03 | 0.85 | 1.09 | 0.91 | 0.93 | 1.2 | 1.15 | 1.25 | 1.01 | –
CCCCCCOc1ccc(Cc2cnc(N)nc2N)cc1 [compound 1] | 1.45 | 0.64 | 0.99 | 0.84 | 1.3 | 0.99 | 1.13 | 1.07 | 1.17 | – | – | – | – | – | – | – | – | – | –
NCCCNc1ccc(C(=O)NC(CCC(=O)O)C(=O)O)cc1 (stereo not drawn) [compound 7] | – | – | – | – | – | – | – | – | – | 0.94 | 0.94 | 1.05 | 1.11 | 1.16 | 1.12 | 1.07 | 1.07 | 0.93 | –
CCCCCCOc1cccc(Cc2cnc(N)nc2N)c1 [compound 2] | 2.57 | 1.09 | 1.22 | 1 | 1.32 | 0.93 | 1.19 | 1.22 | 1.47 | – | – | – | – | – | – | – | – | – | –
